Experiments:
Type in all cases: in vivo
[1] = test system: Alopecurus myosuroides; assay: Post-emergence herbicidal effect against ALOMY; settings: visual assessment after about 3 weeks, 100% = plants have died
Procedure: (§1) 1. Post-Emergence Herbicidal Effect and Crop Plant Compatibility
(§2) Seeds of monocotyledonous and dicotyledonous weed and crop plants are laid out in sandy loam soil in wood-fibre pots, covered with soil and cultivated in a greenhouse under good growth conditions. 2 to 3 weeks after sowing, the test plants are treated at the one-leaf stage. The compounds of the invention, formulated in the form of wettable powders (WP) or as emulsion concentrates (EC), are then sprayed onto the green parts of the plants as aqueous suspension or emulsion at a water application rate equating to 600 to 800 l/ha with addition of 0.2% wetting agent. After the test plants have been left to stand in the greenhouse under optimal growth conditions for about 3 weeks, the action of the preparations is assessed visually in comparison to untreated controls (herbicidal action in percent (%): 100% activity=the plants have died, 0% activity=like control plants).

[2] = test system: Avena fatua; assay: Post-emergence herbicidal effect against AVEFA; settings: 80 g/ha, visual assessment after about 3 weeks, 100% = plants have died
Procedure: as §1, §2

[3] = test system: Digitaria sanguinalis; assay: Post-emergence herbicidal effect against DIGSA; settings: visual assessment after about 3 weeks, 100% = plants have died
Procedure: as §1, §2

[4] = test system: Echinochloa crus-galli; assay: Post-emergence herbicidal effect against ECHCG; settings: visual assessment after about 3 weeks
Procedure: as §1, §2

[5] = test system: Lolium rigidum; assay: Post-emergence herbicidal effect against LOLRI; settings: 80 g/ha, visual assessment after about 3 weeks
Procedure: as §1, §2

[6] = test system: Setaria viridis; assay: Post-emergence herbicidal effect against SETVI; settings: visual assessment after about 3 weeks
Procedure: as §1, §2

[7] = test system: Hordeum murinum; assay: Post-emergence herbicidal effect against HORMU; settings: 80 g/ha, visual assessment after about 3 weeks
Procedure: as §1, §2

[8] = test system: Alopecurus myosuroides; assay: Pre-emergence herbicidal effect against ALOMY; settings: 320 g/ha, scored visually after 3 weeks
Excerpt: (§3) 2. Pre-Emergence Herbicidal Effect and Crop Plant Compatibility
(§4) Seeds of monocotyledonous and dicotyledonous weed plants and crop plants are laid out in sandy loam soil in wood-fibre pots and covered with soil. The compounds of the invention, formulated in the form of wettable powders (WP) or as emulsion concentrates (EC), are then applied to the surface of the covering soil as aqueous suspension or emulsion at a water application rate equating to 600 to 800 L/ha with addition of 0.2% wetting agent.
(§5) After the treatment, the pots are placed in a greenhouse and kept under good growth conditions for the trial plants. The damage to the test plants is scored visually after a test period of 3 weeks by comparison with untreated controls (herbicidal activity in percent (%): 100% activity=the plants have died, 0% activity=like control plants).

[9] = test system: Avena fatua; assay: Pre-emergence herbicidal effect against AVEFA; settings: 320 g/ha, scored visually after 3 weeks
Excerpt: as §3, §4, §5

[10] = test system: Echinochloa crus-galli; assay: Pre-emergence herbicidal effect against ECHCG; settings: 320 g/ha, scored visually after 3 weeks
Excerpt: as §3, §4, §5

[11] = test system: Lolium rigidum; assay: Pre-emergence herbicidal effect against LOLRI; settings: scored visually after 3 weeks
Excerpt: as §3, §4, §5

| Compound | Post-emergence action against ALOMY ([1]; 20 g/ha) [%] | Post-emergence action against ALOMY ([1]; 80 g/ha) [%] | Post-emergence action against AVEFA [2] [%] | Post-emergence action against DIGSA ([3]; 20 g/ha) [%] | Post-emergence action against DIGSA ([3]; 80 g/ha) [%] | Post-emergence action against ECHCG ([4]; 80 g/ha) [%] | Post-emergence action against LOLRI [5] [%] | Post-emergence action against SETVI ([6]; 20 g/ha) [%] | Post-emergence action against SETVI ([6]; 80 g/ha) [%] | Post-emergence action against HORMU [7] [%] | Post-emergence action against ECHCG ([4]; 20 g/ha) [%] | Pre-emergence action against ALOMY [8] [%] | Pre-emergence action against AVEFA [9] [%] | Pre-emergence action against ECHCG [10] [%] | Pre-emergence action against LOLRI ([11]; 80 g/ha) [%] | Pre-emergence action against LOLRI ([11]; 320 g/ha) [%] |
| --- | --- | --- | --- | --- | --- | --- | --- | --- | --- | --- | --- | --- | --- | --- | --- | --- |
| COc1cc(C)cc(C)c1C1=C([O-])C2(COC3(CCOCC3)OC2)NC1=O.[Na+] [Example 2-1] | 90 | 100 | 100 | 90 | 90 | 100 | 100 | 90 | 90 | 90 | – | – | – | – | – | – |
| CCOC(=O)OC1=C(c2c(C)cc(C)cc2OC)C(=O)N(C)C12COC1(CCOCC1)OC2 [Example 8-1] | – | – | – | – | – | 90 | 90 | 80 | 100 | – | 80 | 100 | 100 | 100 | 100 | 100 |
| COc1cc(Cl)cc(C)c1C1=C(O)C2(COC3(CCOCC3)OC2)NC1=O [Example 2-4, sodium 3-(4-chloro-2-methoxy-6-methylphenyl)-2-oxo-7,11,14-trioxa-1-azadispiro[4.2.5^8.2^5]pentadec-3-en-4-olate] | 80 | 100 | 100 | 90 | 90 | 80 | 90 | 80 | 80 | – | – | – | – | – | – | – |
| COc1cc(C)cc(C)c1C1=C(O)C2(COC3(CCOCC3)OC2)N(C)C1=O [Example 5-1] | 80 | 90 | – | – | – | 100 | 90 | 90 | 90 | – | 100 | 90 | 100 | 100 | 100 | 100 |
| CCC(=O)OC1=C(c2c(C)cc(Cl)cc2OC)C(=O)NC12COC1(CCOCC1)OC2 [Example 3-4, 3-(4-chloro-2-methoxy-6-methylphenyl)-2-oxo-7,11,14-trioxa-1-azadispiro[4.2.5^8.2^5]pentadec-3-en-4-yl propionate] | 90 | 100 | 100 | 100 | 100 | 100 | 100 | 80 | 90 | – | – | – | – | – | – | – |
| COc1cc(Cl)cc(C)c1C1=C(O)C2(COC3(CCOCC3)OC2)NC1=O [Example 1-4, 3-(4-chloro-2-methoxy-6-methylphenyl)-4-hydroxy-7,11,14-trioxa-1-azadispiro[4.2.5^8.2^5]pentadec-3-en-2-one] | 90 | 100 | 100 | 80 | 80 | 80 | 100 | 80 | 90 | – | – | – | – | – | – | – |
| COc1cc(C)cc(C)c1C1=C(O)C2(COC3(CCOCC3)OC2)NC1=O [Example 1-1] | 100 | 100 | 100 | 100 | 100 | 100 | 100 | 100 | 100 | 100 | – | – | – | – | – | – |
| CCC(=O)OC1=C(c2c(C)cc(C)cc2OC)C(=O)NC12COC1(CCOCC1)OC2 [Example 3-1] | 90 | 100 | 90 | 90 | 100 | 100 | 100 | 80 | 90 | 90 | – | – | – | – | – | – |
| CCOC(=O)OC1=C(c2c(C)cc(Cl)cc2OC)C(=O)NC12COC1(CCOCC1)OC2 [Example 4-4, 3-(4-chloro-2-methoxy-6-methylphenyl)-2-oxo-7,11,14-trioxa-1-azadispiro[4.2.5^8.2^5]pentadec-3-en-4-yl ethyl carbonate] | 90 | 100 | 80 | 90 | 90 | 100 | 90 | 80 | 90 | – | – | – | – | – | – | – |
| CCOC(=O)OC1=C(c2c(C)cc(C)cc2OC)C(=O)NC12COC1(CCOCC1)OC2 [Example 4-1] | 100 | 100 | 100 | 90 | 90 | 100 | 100 | 90 | 100 | 100 | – | – | – | – | – | – |
| COc1cc(C)cc(C)c1C1=C([O-])C2(COC3(CCOCC3)OC2)N(C)C1=O.[Na+] [Example 6-1] | – | 90 | – | – | – | 100 | 90 | 90 | 90 | – | 90 | 100 | 90 | 100 | 100 | 100 |
